{"source": "patent US20100260680A1", "about": "“NOVEL BONE MASS INCREASING AGENT” (ORIENTAL YEAST CO., LTD., priority 2007, published 2010)", "key": {"MC3T3-E1 cells": {"system": "MC3T3-E1 cells", "assay": "Alizarin red S staining (calcification) of MC3T3-E1 cells", "assay_type": "cell-based, mouse", "conditions": "300 μM; Day 21; differentiation medium and maintenance medium", "description": "On Day 21 after differentiation, the cells were washed with PBS, followed by fixation with a 10% neutral buffer formalin solution.\nThe cells were washed with water after removal of the fixative solution. A 1% alizarin red S stain solution (Nacalai) (150 μL) was added thereto. The plate was left at room temperature for 3 minutes. Thereafter, the stain solution was discarded, followed by washing with water and drying. Then, microscopic observation was carried out.\nCells mixed with 10% FBS+αMEM (GIBCO) were seeded on a 96-well plate (8×10^3 cells/well) and a 48-well plate (2×10^4 cells/well). The culture supernatant of each plate was replaced with 10% FBS+αMEM containing 5 mM β glycerophosphoric acid (SIGMA)+10 μg/mL sodium ascorbate (SIGMA) 48 hours later. Then, the medium was replaced with new medium every 3 or 4 days. As a control, MC3T3-E1 was cultured with the use of 10% FBS+αMEM as a maintenance medium. Upon medium replacement, a peptide was added to each plate at a concentration of 300 μM, ALP activity determination and alizarin red S staining were carried out by the method described in Example 1 on Days 7 and 21."}, "C57BL/6CrjCrlj mice [1]": {"system": "C57BL/6CrjCrlj mice", "assay": "Peptide D administration to mice: bone density (SXA), pQCT and μCT analysis of femur", "assay_type": "in vivo, mouse", "description": "A synthetic peptide was used for experiments. Synthetic peptide D is a cyclic peptide comprising the amino acid sequence represented by SEQ ID NO: 7, which consists of 9 amino acids and contains two cysteine residues binding to each other via a disulfide bond. […] The synthetic peptide was dissolved in 10% DMSO (Nacalai)/PBS to a concentration of 1 mg/ml.\nSubcutaneous administration of peptide D was carried out in a dose of 10 mg/kg at 8:00, 14:00, and 20:00 (three times daily) for 5 days. 5% DMSO/PBS was administered to the control group. Mice were dissected 12 hour after the completion of administration for 5 days and subjected to exsanguination. Thereafter, the femur and the tibia were collected from each mouse. The whole blood of each mouse was left at room temperature for 1 hour and then centrifuged under conditions of 5000 rpm and 4° C. for 5 min. The serum was collected in a new tube. The femur and the tibia of each mouse were fixed with cold 70% ethanol.\nEach femur fixed with ethanol was subjected to single energy X-ray absorptiometry (SXA) analysis (DCS-600EX-IIIR DXA for animals, ALOKA) for determination of bone density, bone mineral content, and bone surface area. The full length of each bone was divided into 20 regions. The bone density for each region was determined and actions of the peptide in each region were analyzed.\nBone structure analysis was carried out by peripheral quantitative computed tomography (hereinafter abbreviated as pQCT) and micro-computed tomography (hereinafter abbreviated as μCT). Scan-Xmate-A080 (Comscantecno Co., Ltd.) was used for μCT and XCT-Research SA+(Stratec Medizintechnik GmbH) was used for pQCT. The dedicated software (3D-BON (RATOC)) was used for preparation of three-dimensional structural image and trabecular structure analysis with the use of μCT data. In addition, for analysis by pQCT, a region with a bone density of 395 mg/cm^3 or less was determined to be cancellous bone and a region with a bone density of 690 mg/cm^3 or more was determined to be cortical bone."}, "mouse tibia": {"system": "mouse tibia", "assay": "DNA microarray analysis of tibia of mice given peptide D", "assay_type": "in vivo", "conditions": "peptide D acetate 10 mg/kg s.c. three times daily for 5 days; n=2", "description": "Total RNA (2 μg) extracted from the tibia of each mouse described in Example 24 was used for a DNA microarray (each group: n=2). According to a standard method, DNA microarray analysis (Mouse Genome 430 2.0 Affymetrix) was carried out. In addition, scanning was performed with a GeneChip Scanner 3000 (Affymetrix 690036) and digitalization was performed using the Gene Chip Operating Software ver. 1.4."}, "C57BL/6CrjCrlj mice [2]": {"system": "C57BL/6CrjCrlj mice", "assay": "Bone morphology measurement with calcein labeling after peptide D administration", "assay_type": "in vivo, mouse", "conditions": "region 5 mm away from the distal end of the femur", "description": "In the experiment in Example 11 in which synthetic peptide D had been administered to mice, calcein (Nacalai) mixed with 2% hydrogen carbonate/ethanol aqueous solution was intraperitoneally administered in doses of 0.01 mL/g (weight) to individual mice of each group for calcein labeling on Days 1 and 4 after the initiation of administration of synthetic peptide D. A region located 5 mm away from the ethanol-fixed distal end of the femur collected from each mouse upon dissection was embedded in a methylmethacrylate (MMA) resin so that a non-decalcified specimen was prepared. […] As a result, in the group treated with peptide D, increases in calcification rate and osteogenesis rate were observed (FIGS. 25A and 25B)."}, "Human osteoblasts": {"system": "Human osteoblasts", "assay": "ALP activity determination in human osteoblasts", "assay_type": "cell-based", "conditions": "antibodies 100 ng/mL or 1 ng/mL; culture for 5 or 6 days", "description": "Seven days after differentiation, the culture supernatant was removed from each plate and the cells were fixed with an acetone/ethanol solution. The ALP activity was determined using p-nitrophenyl phosphate as a substrate. Specifically, a carbonate buffer (5 mM MgCl2, 50 mM NaHCO3) containing p-nitrophenyl phosphate (Nacalai) (1 mg/mL) was added to each well (100 μL/well), followed by incubation at 37° C. Then, the OD value at 405 nm was determined with the use of a microplate reader (BMG Labtech) for each well.\nThe reagents such as anti-RANKL polyclonal antibodies and anti-RANKL monoclonal antibodies used in this Example were the same as those used in Example 4. In addition, an anti-RANKL monoclonal antibody ((C): clone 12A380) (ALEXIS), human OPGFc, and human RANKFc (R&D)) were used. ALP activity determination was carried out as in Example 1. All of the above antibodies are antibodies against mouse RANKL.\nHuman osteoblasts were seeded on a 96-well plate (3.1×10^3/well) and a 48-well plate (7.65×10^3/well). After cell adhesion had taken place, differentiation was carried out using a medium containing 5 mM β-glycerophosphoric acid. The antibodies were added (100 ng/mL or 1 ng/mL) upon differentiation. Culture was carried out for 5 or 6 days, followed by ALP activity determination."}, "[3]": {"conditions": "μCT trabecular structure measurement"}}, "note": "Bridges are numbered along the chain shown (N, C = ends). Where no end group is shown, it is not given here.", "data": [{"substance": "peptide D: cyclic peptide of SEQ ID NO: 7, 9 amino acids, two cysteine residues bound via a disulfide bond; binds to RANKL (YCWSQYLCY; disulfide 2-8 (inferred))", "values": [{"measurement": "alizarin red staining (calcification)", "setting": "MC3T3-E1 cells", "result": "strong degree of alizarin red staining"}, {"measurement": "bone mineral content (SXA, femur)", "setting": "C57BL/6CrjCrlj mice [1]; 10 mg/kg s.c. 3 times daily for 5 days", "result": "increase in bone mineral content"}, {"measurement": "bone density (SXA, femur)", "setting": "C57BL/6CrjCrlj mice [1]; 10 mg/kg s.c. 3 times daily for 5 days, p<0.05 vs control group", "result": "significant increase in bone density"}, {"measurement": "bone density of each region (SXA20 partition analysis)", "setting": "C57BL/6CrjCrlj mice [1]; 6th to 9th regions from the distal end of the femur, p<0.05 vs control group", "result": "significant increase in bone density"}, {"measurement": "bone resorption inhibition actions", "setting": "C57BL/6CrjCrlj mice [1]; based on trabecular structure measurement by μCT", "result": "weak actions"}, {"measurement": "intimal circumference of the cortical bone", "setting": "C57BL/6CrjCrlj mice [1]; region 5 mm away from the distal end of the femur", "result": "shortened"}, {"measurement": "cortical bone density (pQCT)", "setting": "C57BL/6CrjCrlj mice [1]; region 5 mm away from the distal end of the femur, p<0.05 vs control group", "result": "significant increase in cortical bone density"}, {"measurement": "cancellous bone content (μCT)", "setting": "C57BL/6CrjCrlj mice [1]; site 2 mm away from the distal end of the femur", "result": "increased"}, {"measurement": "BV/TV of the cancellous bone", "setting": "C57BL/6CrjCrlj mice [1]; [3]", "result": "increased"}, {"measurement": "trabecular width of the cancellous bone", "setting": "C57BL/6CrjCrlj mice [1]; [3]", "result": "increased"}, {"measurement": "microarray signals of OC, ALP, CoL1 α2, PDGFc, PDGFRβ and IGF-1 in tibia", "setting": "mouse tibia", "result": "significantly higher signals"}, {"measurement": "calcification rate", "setting": "C57BL/6CrjCrlj mice [2]", "result": "increases"}, {"measurement": "osteogenesis rate (bone formation rate)", "setting": "C57BL/6CrjCrlj mice [2]", "result": "increases"}, {"measurement": "ALP activity", "setting": "Human osteoblasts", "result": "significant increase in ALP activity"}]}]}
